Patent US10800776B2, “Fluorine-containing triazolopyridine, and manufacturing method, pharmaceutical composition, and application thereof” (SHANGHAI INSTITUTE OF MATERIA MEDICA, CHINESE ACADEMY OF …, priority 2016, dated 2020)

How the values were obtained:
ICR mice = assay: Mouse swimming depression test; format: in vivo; settings: for non-movement time (%) Mean ± SEM: positive control, 10 mg/kg, intraperitoneal, 0.5 hours before test
Protocol: Experiment objectives: to observe the effect of the test compound on the depressive status of mice
Experimental animals: ICR mice, 20-28 g, both male and female
Experimental equipment: plexiglass tube: cylindrical, 25 cm high, 15 cm inner diameter
Sample treatment: The test compounds were ground with 1% CMC (sodium carboxymethyl cellulose) to prepare a homogeneous solution. In vivo dose was 5 mg/kg, 10 mg/kg and 20 mg/kg, the compound was orally administrated at 0.1 ml/10 g volume/body weight. Positive control drugs (amitriptyline and fluoxetine) were dissolved with 0.9% saline, in vivo dose was 10 mg/kg, intraperitoneal injected at 0.1 ml/10 g volume/body weight. (Note: mice were given the compound after fasted for 8 hours without water-fasted.)
Experimental principle: The mouse is placed in a limited space which can not escape to swim, thus inducing animals to non-movement state which reflects the animal's desperate behavior.
Experimental Methods: mice were grouped randomly, 15 minutes swimming depression was modeled at the first day, and equivalent mice were selected. The second day of the test, 1 hour after the animals were orally administered the compound (0.5 hours after intraperitoneal injection) and then the animals were put in water to record the non-movement time in the later 4 min of 6 min.

hERG potassium channel = hERG potassium channel (Homo sapiens (Human), UniProt Q12809); assay: hERG potassium channel toxicity assay (hERG patch clamp); format: cell-based; settings: for IC50: hERG patch clamp; for inhibition at 40 µM: at maximum concentration 40 μM
Protocol: Experimental method: hERG patch clamp detection method
Experimental procedure: Compound preparation: the stock solution of a compound was diluted with extracellular fluid, 2 μL of the compound stock solution was added to 998 μL extracellular fluid, and then serially diluted 5 times in an extracellular fluid containing 0.2% DMSO to obtain the final concentration to be tested.

mGluR2 = mGluR2 (Homo sapiens (Human), UniProt Q14416); assay: In vitro activity test for mGluR2 (HDB Fluo-8 calcium fluorescence, HEK/mGluR2 cell line); format: cell-based
Source text: Experimental materials: HEK/mGluR2 cell line (human […] transfected HEK cell line), DMEM (FBS) medium, positive control LY487379 (purchased from sigma; CAS: to 352317-17-1)
Experimental instrument: FLIPR Tetra real-time fluorescence imaging analysis system
Experimental method: HDB Fluo-8 calcium fluorescence detection method
Experimental principle: HDB Fluo-8 calcium ion fluorescence detection method is a fast, simple and reliable fluorescence detection method of intracellular calcium concentration changes. The Fluo 8-AM fluorescent dye is an acetyl methyl ester derivative of Fluo 8 which can easily penetrate into the cell membrane by culture. The fluorescent dye in the cell will be hydrolyzed by intracellular esterase, the resulting Fluo 8 as a polar molecule, cannot easily pass through the lipid bimolecular membrane, and will be retained in the cell, and combine with calcium (Ca^2+) to produce fluoresces.
Cells expressing GPCR receptor protein (mGluR2) were first calibrated with a calcium ion sensitive fluorescent probe and then stimulated with the compound. After stimulation, the receptor activates the calcium ion mobilization, and the fluorescent probe captures the calcium ion to induce the fluorescence signal. The signal can be read by a fluoroscopy plate. The fluorescent plate reader contains a sample addition for compound addition, thus enabling the change of the fluorescence value of the compound be read in real time.

C57BL/6 mice = assay: Mouse open field experiment; format: in vivo
Protocol: Experiment objectives: to observe the anti-anxiety effect of the test compound on the mice by open field experiment.
Experimental animals: male C57BL/6 mice, 10 weeks old, purchased from Beijing Huafukang Biotechnology Co., Ltd.
Animal rearing: The temperature in the animal room was maintained at 20-25° C., the humidity was maintained at 40-70%, and the photoperiod was 12 hours light and 12 hours dark. During feeding, the mice were housed in standard mouse cages, with colored labels on each cage clearly indicating the item number, and the basic information such as the responsible person, group, animal number and animal gender. All animals were given free access to pure water and standard certified rodent feed. Before the start of the experiment, the experimental animals were adapted to the feeding environment for at least one week.
The compound to be tested, intraperitoneally administered, 30 mg/kg.
Experimental principle: Based on the instincts of rodents tending to avoid light and fear of exploring open fields. When the experimental animals were first placed in the open field, the central area was a potential threat to the animals, while the peripheral area was relatively safe, and rats and mice were more likely to move along the perimeter of the field. Therefore, if the animal is of high anxiety level, it tends to stay in the peripheral area. Conversely, the number and time of exploration in the central area will increase.
Experimental grouping and administration: Experimental animals were randomly divided into 5 groups as follows:
During the 30-minute test period, the total distance traveled by the experimental animals, the central area dwell time, and the percentage of the central area travel distance will be detected and recorded.

[1] = human, hERG, read-out: Inhibition rate (%)
[2] = 30 mg/kg i.p., 1 hour before, 30-minute test

hERG potassium channel, sequence (Q12809 whole entry): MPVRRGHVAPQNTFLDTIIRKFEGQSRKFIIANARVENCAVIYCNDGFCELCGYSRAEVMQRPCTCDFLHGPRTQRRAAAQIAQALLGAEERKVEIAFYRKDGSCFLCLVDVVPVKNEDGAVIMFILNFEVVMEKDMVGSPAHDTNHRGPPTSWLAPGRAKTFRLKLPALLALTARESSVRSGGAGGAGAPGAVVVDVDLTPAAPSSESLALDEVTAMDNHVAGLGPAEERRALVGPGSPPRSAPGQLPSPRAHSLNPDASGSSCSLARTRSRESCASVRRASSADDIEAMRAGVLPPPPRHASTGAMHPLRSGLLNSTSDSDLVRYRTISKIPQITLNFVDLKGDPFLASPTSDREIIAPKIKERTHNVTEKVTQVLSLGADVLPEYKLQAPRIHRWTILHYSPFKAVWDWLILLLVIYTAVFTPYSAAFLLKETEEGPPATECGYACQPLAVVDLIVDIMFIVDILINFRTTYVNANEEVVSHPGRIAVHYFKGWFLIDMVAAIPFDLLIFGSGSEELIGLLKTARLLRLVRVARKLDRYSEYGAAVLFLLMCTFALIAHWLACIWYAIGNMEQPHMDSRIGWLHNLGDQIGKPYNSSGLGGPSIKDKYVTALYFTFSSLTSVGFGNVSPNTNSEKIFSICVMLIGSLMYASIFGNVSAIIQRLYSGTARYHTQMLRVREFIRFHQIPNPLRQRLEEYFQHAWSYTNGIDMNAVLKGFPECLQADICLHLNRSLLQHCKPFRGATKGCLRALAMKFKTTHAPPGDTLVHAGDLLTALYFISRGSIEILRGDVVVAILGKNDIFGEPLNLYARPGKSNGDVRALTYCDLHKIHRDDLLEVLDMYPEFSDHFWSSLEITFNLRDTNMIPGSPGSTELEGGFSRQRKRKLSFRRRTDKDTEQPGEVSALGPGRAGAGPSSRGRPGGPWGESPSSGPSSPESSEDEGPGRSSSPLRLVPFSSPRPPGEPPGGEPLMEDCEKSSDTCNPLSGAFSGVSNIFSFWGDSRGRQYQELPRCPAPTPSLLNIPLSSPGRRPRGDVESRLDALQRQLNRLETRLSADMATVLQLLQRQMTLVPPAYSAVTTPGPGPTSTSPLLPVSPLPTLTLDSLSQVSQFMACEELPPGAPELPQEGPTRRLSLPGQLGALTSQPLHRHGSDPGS
mGluR2, sequence (Q14416 19-872): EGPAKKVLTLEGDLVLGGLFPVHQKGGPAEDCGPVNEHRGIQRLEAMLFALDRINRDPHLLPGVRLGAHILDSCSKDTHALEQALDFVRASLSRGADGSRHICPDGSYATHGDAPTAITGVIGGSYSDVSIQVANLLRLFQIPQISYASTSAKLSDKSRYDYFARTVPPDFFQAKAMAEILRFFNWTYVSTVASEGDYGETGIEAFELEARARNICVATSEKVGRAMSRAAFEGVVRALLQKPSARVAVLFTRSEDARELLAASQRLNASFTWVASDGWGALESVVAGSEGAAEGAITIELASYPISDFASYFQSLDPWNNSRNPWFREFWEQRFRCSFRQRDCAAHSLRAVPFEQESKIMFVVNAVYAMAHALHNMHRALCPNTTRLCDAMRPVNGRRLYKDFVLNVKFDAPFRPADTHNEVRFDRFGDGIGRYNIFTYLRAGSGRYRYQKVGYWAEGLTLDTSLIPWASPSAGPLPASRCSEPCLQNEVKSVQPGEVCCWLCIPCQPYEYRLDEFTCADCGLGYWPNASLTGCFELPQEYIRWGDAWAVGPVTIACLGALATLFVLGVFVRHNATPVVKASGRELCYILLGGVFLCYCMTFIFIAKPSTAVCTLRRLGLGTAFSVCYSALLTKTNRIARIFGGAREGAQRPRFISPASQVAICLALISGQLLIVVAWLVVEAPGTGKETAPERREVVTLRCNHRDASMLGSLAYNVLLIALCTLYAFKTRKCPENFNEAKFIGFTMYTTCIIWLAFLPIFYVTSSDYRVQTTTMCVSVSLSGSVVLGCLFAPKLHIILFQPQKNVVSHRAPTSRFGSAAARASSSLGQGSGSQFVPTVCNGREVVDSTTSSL

| Compound | EC50 (mGluR2) [nM] | IC50 (hERG potassium channel) [nM] | inhibition at 40 µM (hERG potassium channel; [1]) [%] | further results |
| --- | --- | --- | --- | --- |
| CN(C)CCC=C1c2ccccc2CCc2ccccc21 [Amitriptyline, reference compound] | – | – | – | "no movement time" of swimming in mice (in words) (ICR mice; mouse, in vivo): significantly improved; non-movement time (%) Mean ± SEM (ICR mice): 5.32 ± 2.08 % |
| COc1cc(N)c(Cl)cc1C(=O)NC1CCN(CCCOc2ccc(F)cc2)CC1OC (stereo not drawn) [Cisapride, reference compound] | – | – | – | inhibition at 3 µM (hERG potassium channel; human, hERG, positive compound, maximum test concentration 3 μM, read-out: Inhibition rate (%)): 96.6% |
| Cc1cccc(-c2ccn3c(CC4CC4(F)F)nnc3c2)c1 (stereo not drawn) [Compound 10, 3-((2,2-difluorocyclopropyl)methyl)-7-(m-tolyl)-[1,2,4]triazole [4,3-a]pyridine] | 143 | > 40000 | 38.1 | – |
| Fc1cccc(-c2ccn3c(CC4CC4(F)F)nnc3c2)c1 (stereo not drawn) [Compound 11, 3-((2,2-Difluorocyclopropyl)methyl)-7-(3-fluorophenyl)-[1,2,4]triazole [4,3-a]pyridine] | 704 | > 40000 | 45.9 | – |
| Fc1ccc(-c2ccn3c(CC4CC4(F)F)nnc3c2)cc1 (stereo not drawn) [Compound 13, 3-((2,2-difluorocyclopropyl)methyl)-7-(4-fluorophenyl)-[1,2,4]triazole [4,3-a]pyridine] | 381 | 31900 | 52.8 | – |
| CC(C)(O)c1ccc(-c2ccn3c(CC4CC4(F)F)nnc3c2)cc1 (stereo not drawn) [Compound 21, 2-(4-(3-((2,2-difluorocyclopropyl)methyl)-[1,2,4]triazole[4,3-a]pyridin-7-yl)phenyl)propan-2-ol] | 226 | 31900 | 52.8 | – |
| COc1ccc(-c2ccn3c(CC4CC4(F)F)nnc3c2)cc1F (stereo not drawn) [Compound 23, 3-((2,2-difluorocyclopropyl)methyl)-7-(3-fluoro-4-methoxyphenyl)-[1,2,4] triazole[4,3-a]pyridine] | 849 | > 40000 | 46 | – |
| Cc1cc(F)ccc1-c1ccn2c(CC3CC3(F)F)nnc2c1 (stereo not drawn) [Compound 26, 3-((2,2-difluorocyclopropyl)methyl)-7-(4-fluoro-2-methylphenyl)-[1,2,4] triazole[4,3-a]pyridine] | 781 | > 40000 | 49.4 | – |
| Cc1cc(-c2ccn3c(CC4CC4(F)F)nnc3c2)ccc1F (stereo not drawn) [Compound 27, 3-((2,2-difluorocyclopropyl)methyl)-7-(4-fluoro-3-methylphenyl)-[1,2,4] triazole[4,3-a]pyridine] | 868 | > 40000 | 49.9 | – |
| COC(=O)c1ccc(-c2ccn3c(CC4CC4(F)F)nnc3c2)c(F)c1 (stereo not drawn) [Compound 29, Methyl 4-(3-((2,2-difluorocyclopropyl)methyl)-[1,2,4]triazolo[4,3-a]pyridin-7-yl)-3-fluorobenzonate] | 541 | 17300 | 62.4 | – |
| FC1(F)CC1Cc1nnc2cc(-c3ccc4c(c3)CCO4)ccn12 (stereo not drawn) [Compound 31, 3-((2,2-difluorocyclopropyl)methyl)-7-(2,3-benzodihydrofuran-5-yl)-[1,2,4]triazole[4,3-a]pyridine] | 368 | > 40000 | 48.1 | – |
| FC1(F)CC1Cc1nnc2cc(-c3cccc4c3OCC4)ccn12 (stereo not drawn) [Compound 32, 3-((2,2-difluorocyclopropyl)methyl)-7-(2,3-benzodihydrofuran-7-yl)-[1,2,4]triazole[4,3-a]pyridine] | 825 | > 40000 | 51 | – |
| FC1(F)CC1Cc1nnc2cc(-c3cccc4cccnc34)ccn12 (stereo not drawn) [Compound 34, 8-(3-((2,2-difluorocyclopropyl)methyl)-[1,2,4]triazole[4,3-a]pyridin-7-yl)quinoline] | 612 | > 40000 | 36 | – |
| FC1(F)CC1Cc1nnc2cc(-c3ccc4c(c3)OCO4)ccn12 (stereo not drawn) [Compound 35, 7-(Benzo[d][1,3]dioxol-5-yl)-3-((2,2-difluorocyclopropyl)methyl)-[1,2,4]triazole [4,3-a]pyridine] | 108 | > 40000 | 40 | Central area dwell time (s) Mean ± SEM (C57BL/6 mice; [2]): 102.6 ± 20.8 s; Central area traveling distance percentage (%) Mean ± SEM (C57BL/6 mice; [2]): 15.41 ± 1.99%; Total moving distance (cm) Mean ± SEM (C57BL/6 mice; [2]): 3491.2 ± 650.6 cm |
| Cc1cccc(-c2ccn3c(CC4CC4(F)F)nnc3c2Cl)c1 (stereo not drawn) [Compound 36, 8-chloro-3-((2,2-difluorocyclopropyl)methyl)-7-(m-tolyl)-[1,2,4] triazole[4,3-a]pyridine] | 130 | > 40000 | 48.9 | – |
| Fc1cccc(-c2ccn3c(CC4CC4(F)F)nnc3c2Cl)c1 (stereo not drawn) [Compound 37, 8-chloro-3-((2,2-difluorocyclopropyl)methyl)-7-(3-fluorophenyl)-[1,2,4] triazole[4,3-a]pyridine] | 190 | 15000 | 57 | – |
| Cc1cc(F)ccc1-c1ccn2c(CC3CC3(F)F)nnc2c1Cl (stereo not drawn) [Compound 41, 8-chloro-3-((2,2-difluorocyclopropyl)methyl)-7-(4-fluoro-2-methylphenyl)-[1,2,4]triazole[4,3-a]pyridine] | 856 | 11200 | 80.1 | – |
| COc1ccc(-c2ccn3c(CC4CC4(F)F)nnc3c2Cl)cc1F (stereo not drawn) [Compound 44, 8-chloro-3-((2,2-difluorocyclopropyl)methyl)-7-(3-fluoro-4-methoxyphenyl)-[1,2,4]triazole[4,3-a]pyridine] | 118 | 16100 | 64.5 | – |
| COC(=O)c1ccc(-c2ccn3c(CC4CC4(F)F)nnc3c2Cl)c(Cl)c1 (stereo not drawn) [Compound 46, Methyl 3-Chloro-4-(8-chloro-3-((2,2-difluorocyclopropyl)methyl)-[1,2,4]triazole[4,3-a]pyridine-7-yl)benzoate] | 230 | 10800 | 82.5 | – |
| FC1(F)CC1Cc1nnc2c(Cl)c(-c3ccc4c(c3)CCO4)ccn12 (stereo not drawn) [Compound 47, 8-chloro-3-((2,2-difluorocyclopropyl)methyl)-7-(2,3-benzodihydrofuran-5-yl)-[1,2,4]triazole[4,3-a]pyridine] | 215 | 4880 | 96.4 | – |
| CN1C(=O)CN=C(c2ccccc2)c2cc(Cl)ccc21 [Diazepam, reference compound] | – | – | – | anti-anxiety effect in the open field experiment (C57BL/6 mice; mouse, in vivo): very significant anti-anxiety effect |
| CNCCC(Oc1ccc(C(F)(F)F)cc1)c1ccccc1 (stereo not drawn) [Fluoxetine, reference compound] | – | – | – | non-movement time (%) Mean ± SEM (ICR mice): 33.98 ± 9.84 % |
| COc1ccccc1Oc1ccc(N(Cc2cccnc2)S(=O)(=O)CC(F)(F)F)cc1 [LY487379, reference compound] | 230 | – | – | – |
